Reference: article PMC4785407, “Reduction Impairs the Antibacterial Activity but Benefits the LPS Neutralization Ability of Human Enteric Defensin 5” (Scientific Reports, 2016)
Bridge positions count the residues as written; N and C are the ends. Peptide text beside a SMILES is read from it.

Legend:
[1] = Isothermal titration calorimetry (ITC), peptides and LPS; assay type: binding; conditions: for interaction with LPS (heat release): 1 mg/mL peptide, 10 μg/mL LPS, 25 °C, repeated three times
Procedure: Interactions between peptides and LPS were monitored using a MicroCal ITC200 system (Malvern, UK) at 25 °C. The concentration of the peptides in the syringe was 1 mg/mL (40 μL). LPS was prepared in sterile water at a concentration of 10 μg/mL (300 μL per cell). Twenty injections (0.2 μL for the first injection and 2 μL for the remaining injections) were applied at 120 s intervals and at a stirring rate of 1,000 rpm. The data were processed by subtracting the baseline heat release from titrations of sterile water into LPS and from 20 mM DTT into LPS. The experiment was repeated three times.

[2] = test system: interaction between LPS and LBP (mouse LBP); assay: LPS-binding protein (LBP) block assay; assay type: biochemical; conditions: for effect on the interaction between LPS and LBP: 50 μg/mL peptide, mouse LBP 60 ng/mL, biotinylated LPS 50 ng/mL
Procedure: The effects of peptides on the interaction between LPS and low concentrations of LBP were determined as previously described. Briefly, the plates of a LBP ELISA kit (Boster EK1274) were blocked by the incubation of 1% BSA prepared in 10 mM sodium phosphate buffer (pH 7.4) at 37 °C for 1 h, which were subsequently washed with 0.1% Tween-20. Aliquots of 100 μL of mouse LBP (Sigma SRP6034, 60 ng/mL) were added and incubated at 37 °C for 1.5 h. Peptides were prepared in sterile water, with concentrations of 12.5, 25, and 50 μg/mL, respectively. Biotinylated LPS (50 ng/mL) was added in the absence or presence of peptides (pre-incubated at 37 °C for 30 min). Polymyxin B (200 ng/mL) was used as a positive control. The binding of LPS to LBP was determined using a chromogenic reaction between HRP-conjugated streptavidin (Boster BA1088) and TMB (Sigma 860336). Data were processed by subtracting the absorbance in the absence of LPS. Statistical significance was determined by the Student−Newman−Keuls multiple comparisons test.
Figure 5. The efficiencies of peptides in blocking the interaction between LPS and LBP. A LBP ELISA plate was blocked by 1% BSA and subsequently washed with 0.1% Tween-20. Aliquots of 100 μL of the mouse LBP (60 ng/mL) was added and incubated at 37°C for 1.5 h. Peptides were prepared in sterile water, with concentrations of 12.5, 25, and 50 μg/mL, respectively. Biotinylated LPS (50 ng/mL) was then added in the absence or presence of peptides (pre-incubated at 37°C for 30 min). Data were processed by subtracting the absorbance in the absence of biotinylated LPS. Statistical significance was determined by the Student−Newman−Keuls multiple comparisons test. n.s, not significant; **, p < 0.01, relative to the value of the group solely treated with LPS.

[3] = Circular dichroism (CD) spectroscopy; assay type: physicochemical; conditions: 27 °C; for CD secondary structure in the presence of LPS: 100 μg/mL peptide, 100 μg/mL LPS; for CD secondary structure in SDS micelles: 100 μg/mL, 20 mM SDS
Procedure: The conformational properties of the peptides were analyzed using an Applied Photophysics Chirascan instrument at 27 °C. A cell with a 1-mm path length was utilized. The CD spectra were obtained from 190–280 nm at 1 nm intervals. The time-per-point was 0.5 s, and the scanning time was approximately 73 s. Peptides (100 μg/mL, 250 μL) prepared in sterile water were examined in the presence of 20 mM sodium dodecyl sulfate (SDS) and 100 μg/mL LPS. Before scanning, peptides were incubated with SDS and LPS at room temperature for 1 h. The data obtained from three independent scans were averaged and smoothed by Pro-Data Chirascan software (version 4.1).

[4] = test system: Escherichia coli (ATCC 25922); assay: virtual colony count assay, E. coli; assay type: cell-based; conditions: for LD50 (Lethal Dose that kills 50% of bacteria) / LD90 (Lethal Dose that kills 90% of bacteria): ATCC 25922 E. coli, 1 × 10^6 CFU/mL, 10 mM sodium phosphate buffer pH 7.4, 1% TSB, 37 °C, 1 h, duplicate, repeated three times
Procedure: (§1) Figure 3 Reduction attenuates the antibacterial activity of HD5OX against Gram-negative bacteria. […] Peptides were prepared in sterile water, with the final concentrations of 0.78, 1.56, 3.13, 6.25, 12.5, and 25 μg/mL. […] Zero survival points are not plotted.

E. coli = assay: Antibacterial assay in the presence of LPS; assay type: cell-based; conditions: 4 μg/mL LPS, 12.5 μg/mL peptide
Procedure: (B) Heat release of the interaction between 1 mg/mL of the peptides and 10 μg/mL of LPS. Shown is the relationship between the enthalpy value (△H) and the weight ratio of peptides to LPS. […] The antibacterial efficiency is presented as the bacterial lethal rate, which is calculated by dividing the number of killed colonies by the number of colonies remaining after treatment with sterile water or 0.25 mM DTT. Statistical significance was determined by the Student’s t-test. n.s, not significant; **p < 0.01.

[5] = test system: E. coli ML35 (ATCC 43827); assay: virtual colony count assay, E. coli ML35; assay type: cell-based; conditions: for LD50 (Lethal Dose that kills 50% of bacteria) / LD90 (Lethal Dose that kills 90% of bacteria): ATCC 43827 E. coli ML35, 1 × 10^6 CFU/mL, 10 mM sodium phosphate buffer pH 7.4, 1% TSB, 37 °C, 1 h, duplicate, repeated three times
Procedure: as §1

[6] = virtual colony count, 0.78-25 μg/mL, HD5OX vs HD5RED

SMILES | interaction with LPS (heat release) [1] | effect on the interaction between LPS and LBP [2] | CD secondary structure in the presence of LPS [3] | CD secondary structure in SDS micelles [3] | LD50 (Lethal Dose that kills 50% of bacteria) [4] [µg/mL] | LD90 (Lethal Dose that kills 90% of bacteria) [4] [µg/mL] | antibacterial action against E. coli, relative [4, 6] | antibacterial efficiency in presence of LPS (E. coli) | LD50 (Lethal Dose that kills 50% of bacteria) [5] [µg/mL] | LD90 (Lethal Dose that kills 90% of bacteria) [5] [µg/mL] | antibacterial action against E. coli ML35, relative [5, 6] | LPS-binding, relative ([1]; weight ratios ≥8.0, vs HD5OX) | LBP-blocking, dose dependence ([2]; 12.5, 25, and 50 μg/mL) | CD secondary structure in aqueous ([3]; 100 μg/mL in sterile water, vs HD5OX) | fold of concentration needed to inactivate 90% relative to HD5OX ([4]; E. coli ATCC 25922, higher than HD5OX) | fold of concentration needed to inactivate 90% relative to HD5OX ([5]; E. coli ML35 ATCC 43827, higher than HD5OX)
CC[C@H](C)[C@@H]1NC(=O)[C@H](CCC(=O)O)NC(=O)[C@@H]2CSSC[C@@H]3NC(=O)[C@H](Cc4ccc(O)cc4)NC(=O)[C@@H](NC(=O)[C@@H](NC(=O)[C@H](C)N)[C@@H](C)O)CSSC[C@@H](C(=O)N[C@@H](CCCNC(=N)N)C(=O)O)NC(=O)[C@H](CSSC[C@H](NC(=O)[C@H](CCCNC(=N)N)NC(=O)CNC(=O)[C@H]([C@@H](C)O)NC(=O)[C@H](CCCNC(=N)N)NC3=O)C(=O)N[C@@H](C)C(=O)N[C@@H]([C@@H](C)O)C(=O)N[C@@H](CCCNC(=N)N)C(=O)N[C@@H](CCC(=O)O)C(=O)N[C@@H](CO)C(=O)N[C@@H](CC(C)C)C(=O)N[C@@H](CO)C(=O)NCC(=O)N[C@@H](C(C)C)C(=O)N2)NC(=O)[C@H](CC(C)C)NC(=O)[C@H](CCCNC(=N)N)NC(=O)[C@H](Cc2ccc(O)cc2)NC(=O)[C@H](CC(C)C)NC(=O)[C@H](CCCNC(=N)N)NC(=O)CNC(=O)[C@H](CO)NC1=O [HD5OX, Oxidized human defensin 5] (H-ATCYCRTGRCATRESLSGVCEISGRLYRLCCR-OH; disulfide 3-31, 5-20, 10-30; N-terminus and C-terminus assumed) | exothermically interacted with 10 μg/mL of LPS | less effect on the interaction between LPS and LBP | slightly red-shifted | maintained the β-sheet structures | 3.2 ± 0.7 | 7.6 ± 1.1 | more potent action against these bacteria than HD5RED | virtually unaffected | 4.7 ± 0.8 | 11.6 ± 1.7 | more potent action against these bacteria than HD5RED |  |  |  |  | 
CC[C@H](C)[C@H](NC(=O)[C@H](CCC(=O)O)NC(=O)[C@H](CS)NC(=O)[C@@H](NC(=O)CNC(=O)[C@H](CO)NC(=O)[C@H](CC(C)C)NC(=O)[C@H](CO)NC(=O)[C@H](CCC(=O)O)NC(=O)[C@H](CCCNC(=N)N)NC(=O)[C@@H](NC(=O)[C@H](C)NC(=O)[C@H](CS)NC(=O)[C@H](CCCNC(=N)N)NC(=O)CNC(=O)[C@@H](NC(=O)[C@H](CCCNC(=N)N)NC(=O)[C@H](CS)NC(=O)[C@H](Cc1ccc(O)cc1)NC(=O)[C@H](CS)NC(=O)[C@@H](NC(=O)[C@H](C)N)[C@@H](C)O)[C@@H](C)O)[C@@H](C)O)C(C)C)C(=O)N[C@@H](CO)C(=O)NCC(=O)N[C@@H](CCCNC(=N)N)C(=O)N[C@@H](CC(C)C)C(=O)N[C@@H](Cc1ccc(O)cc1)C(=O)N[C@@H](CCCNC(=N)N)C(=O)N[C@@H](CC(C)C)C(=O)N[C@@H](CS)C(=O)N[C@@H](CS)C(=O)N[C@@H](CCCNC(=N)N)C(=O)O [HD5RED] (H-ATCYCRTGRCATRESLSGVCEISGRLYRLCCR-OH) | heat release was higher than that of HD5OX | significantly inhibited the LPS-LBP interaction | adopted a different conformation with two negative ellipticities at 217 nm and 206 nm | transformed into a peptide containing α-helical structures | 6.5 ± 0.8 | 12.9 ± 1.3 |  | significantly impaired | 9.9 ± 0.6 | 22.5 ± 2.3 |  | much stronger than that of HD5OX | dose-dependent LBP-blocking | less effective in forming rigid β-sheet structures | 1.7 -fold | 1.9 -fold
